Data as given in patent US11420970B1 (NOVARTIS AG, priority 2019, dated 2022).
Where two headings read alike, the source gives them in different places.

How the values were obtained:
[1] = tested on: cellular H3K36me2 level in thyroid carcinoma cell line CGTH-W-1 (NSD2 E1099K); experiment: H3K36me2 cellular ELISA assay in CGTH-W-1 line; type: cell-based; details: Homo sapiens, read-out: H3K36me2 ELISA in CGTH-W-1
Procedure: H3K36Me2 Cellular ELISA Assay in CGTH-W-1 Line
An ELISA (enzyme-linked immunosorbent assay) based assay was used to test the ability of candidate compound to reduce cellular H3K36me2 level in thyroid carcinoma cell line CGTH-W-1, carrying NSD2 E1099K gain of function mutation. CGTH-W-1 (DSMZ) cells are maintained in RPM11640 media with 10% FBS and 50 U/ml Penicillin-Streptomycin.
Cells were treated with tested compounds at the desired concentration for 72 hours.
(§1) Histone bound plates were washed and blocked with 5% BSA. […] The abundance of H3K36me2 and total H3 was measured by Chemiluminesce on a plate reader. Cell viability was monitored on a parallel seeded plate with CellTiter-Glo reagent (Promega #G7573).

NSD2 [1-1365] = NSD2 [1-1365] (Homo sapiens (Human), UniProt O96028); experiment: LC-MS/MS-based NSD2 enzymatic assay (SAH production); type: biochemical; details: read-out: NSD2 IC50
NSD2 [1-1365], sequence (O96028 whole entry): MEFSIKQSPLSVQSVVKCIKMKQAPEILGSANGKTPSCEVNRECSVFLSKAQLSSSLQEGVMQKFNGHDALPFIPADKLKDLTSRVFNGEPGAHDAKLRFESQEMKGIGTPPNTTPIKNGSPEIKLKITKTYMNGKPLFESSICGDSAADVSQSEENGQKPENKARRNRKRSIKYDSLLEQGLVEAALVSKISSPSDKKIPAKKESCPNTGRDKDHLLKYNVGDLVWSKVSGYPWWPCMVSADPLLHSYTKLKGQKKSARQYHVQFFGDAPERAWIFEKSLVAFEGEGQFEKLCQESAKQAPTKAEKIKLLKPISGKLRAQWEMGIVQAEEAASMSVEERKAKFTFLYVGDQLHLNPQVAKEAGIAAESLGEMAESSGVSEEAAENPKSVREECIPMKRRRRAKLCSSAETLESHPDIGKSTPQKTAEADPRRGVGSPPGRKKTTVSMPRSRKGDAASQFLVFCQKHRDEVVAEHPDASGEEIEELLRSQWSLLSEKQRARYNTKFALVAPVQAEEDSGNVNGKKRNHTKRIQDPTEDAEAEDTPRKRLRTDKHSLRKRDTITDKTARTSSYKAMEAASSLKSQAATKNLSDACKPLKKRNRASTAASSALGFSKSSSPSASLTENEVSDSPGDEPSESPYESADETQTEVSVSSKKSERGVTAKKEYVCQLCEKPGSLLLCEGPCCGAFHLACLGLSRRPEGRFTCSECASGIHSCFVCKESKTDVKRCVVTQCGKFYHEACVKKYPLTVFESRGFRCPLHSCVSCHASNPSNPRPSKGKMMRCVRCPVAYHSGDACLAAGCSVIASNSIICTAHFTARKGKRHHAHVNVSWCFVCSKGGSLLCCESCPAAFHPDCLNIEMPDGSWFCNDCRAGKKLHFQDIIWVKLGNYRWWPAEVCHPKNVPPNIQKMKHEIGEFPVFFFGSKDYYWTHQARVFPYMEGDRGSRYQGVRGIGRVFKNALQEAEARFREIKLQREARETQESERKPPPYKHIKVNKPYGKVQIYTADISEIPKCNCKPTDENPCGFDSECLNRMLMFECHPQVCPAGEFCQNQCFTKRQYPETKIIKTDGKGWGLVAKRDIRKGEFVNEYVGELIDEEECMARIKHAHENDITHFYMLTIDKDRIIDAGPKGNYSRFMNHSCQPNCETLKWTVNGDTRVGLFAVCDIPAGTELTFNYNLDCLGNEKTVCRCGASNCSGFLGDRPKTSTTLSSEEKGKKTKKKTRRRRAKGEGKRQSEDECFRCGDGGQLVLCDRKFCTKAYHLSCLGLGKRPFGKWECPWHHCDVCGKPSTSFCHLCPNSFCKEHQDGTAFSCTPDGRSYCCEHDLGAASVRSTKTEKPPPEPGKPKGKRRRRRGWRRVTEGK
Procedure, shortened: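 SAH formed was measured by LC-MS/MS using d4-SAH as internal standard and an SAH calibration curve. Compounds were preincubated 20 min with NSD2 [1-1365] and SAM; mouse-liver nucleosome then started a 90 min room-temperature reaction (8 nM enzyme, 1 μM SAM, 400 nM nucleosome final, pH 8.0), stopped with TFA.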

[2] = tested on: cellular H3K36me2 level in multiple myeloma cell line KMS11 (t(4;14)+); experiment: H3K36me2 cellular ELISA assay in KMS11-Par line; type: cell-based; details: Homo sapiens, KMS-11, ELISA, read-out: H3K36me2 ELISA in KMS11-Par
Procedure: H3K36Me2 Cellular ELISA Assay in KMS11-Par Line
An ELISA (enzyme-linked immunosorbent assay) based assay was used to test the ability of candidate compound to reduce cellular H3K36me2 level in multiple myeloma cell line KMS11 (t(4;14)+). KMS11 (Horizon Discovery Ltd.) cells are maintained in RPM11640 media with 12.5% FBS and 50 U/ml Penicillin-Streptomycin. For assay compound treatment, single cell suspension was prepared in Opti-MEM supplemented with B-27 and N2 supplement (Invitrogen 11058-021, 17504-044, 17502-048) for ELISA and in maintenance media for cellTiter Glo (CTG) viability assay. One day prior to cell treatment, 1,250 KMS11 cells were seeded into 384-well Greiner CellStar TC plate (Greiner #781086) at the final volume of 30 μL/well.
Cells were treated with tested compounds at the desired concentration for 72 hours. Crude histone lysate was extracted by 0.4M HCl following neutralization by 0.5M Sodium phosphate, dibasic (Na2HPO4), pH ˜12.5. Equal amount of histone lysate was loaded to Corning 384-well high biding plate (Corning #3577, black) for H3K36m2 and to Thermo 384-well high binding Nunc plate (Thermo #460372, white) for total H3.
as §1

[3] = KMS11-Par line (t(4;14)+), 72 hours treatment
[4] = NSD2 biochemical activity, class symbols

IC50 (NSD2 [1-1365]) [nM]	IC50 ([2]; KMS11-Par line, 72 hours) [nM]	IC50 [2, 3] [nM]	IC50 (NSD2 [1-1365]; [4]) [nM]	SMILES	also measured
–	–	21000	10 to 1000	CCO[C@H](C)C1(N)CCCN(c2cnc(-c3ccc(F)c(F)c3)cc2Cn2cnc3c(N)ncnc32)C1 (stereo partly drawn) [Example 99, 9-((5-(3-amino-3-((R)-1-ethoxyethyl)piperidin-1-yl)-2-(3,4-difluorophenyl)pyridin-4-yl)methyl)-9H-purin-6-amine]	–
–	–	1150	10 to 1000	Nc1ncnc2c1ncn2Cc1cc(-c2ccc(F)c(F)c2)ncc1N1CCCC(N)(Cc2cccc(F)n2)C1 (stereo not shown) [Example 69, 9-((5-(3-amino-3-((6-fluoropyridin-2-yl)methyl)piperidin-1-yl)-2-(3,4-difluorophenyl)pyridin-4-yl)methyl)-9H-purin-6-amine]	–
–	–	1130	10 to 1000	C[C@@H](c1ccccn1)[C@@]1(N)CCCN(c2cnc(-c3ccc(F)c(F)c3)cc2Cn2cnc3c(N)ncnc32)C1 [Example 65, 9-((5-((S)-3-amino-3-((R)-1-(pyridin-2-yl)ethyl)piperidin-1-yl)-2-(3,4-difluorophenyl)pyridin-4-yl)methyl)-9H-purin-6-amine]	–
1 to 10	846	–	–	Nc1ncnc2c1ncn2Cc1cc(-c2ccc(F)c(F)c2)ncc1N1CCC[C@](N)(c2ncccc2F)C1 [Example 199, (R)-9-((5-(3-amino-3-(3-fluoropyridin-2-yl)piperidin-1-yl)-2-(3,4-difluorophenyl)pyridin-4-yl)methyl)-9H-purin-6-amine]	–
–	–	910	1 to 10	Cc1cccc(C[C@@]2(N)CCCN(c3cnc(-c4ccc(F)c(F)c4)cc3Cn3cnc4c(N)ncnc43)C2)n1 [Example 55, (S)-9-((5-(3-amino-3-((6-methylpyridin-2-yl)methyl)piperidin-1-yl)-2-(3,4-difluorophenyl)pyridin-4-yl)methyl)-9H-purin-6-amine]	–
10 to 1000	563	–	–	Nc1ncnc2c1ncn2Cc1cc(-c2ccc(F)c(F)c2)ncc1N1CC[C@@H](O)[C@](N)(c2cccc(Cl)n2)C1 [Example 302, (3R,4R)-3-amino-1-(4-((6-amino-9H-purin-9-yl)methyl)-6-(3,4-difluorophenyl)pyridin-3-yl)-3-(6-chloropyridin-2-yl)piperidin-4-ol]	–
10 to 1000	> 33700	–	–	CN(C)C(=O)CC[C@@]1(N)CCCN(c2cnc(-c3ccc(F)c(F)c3)cc2Cn2cnc3c(N)ncnc32)C1 [Example 322, (S)-3-(3-amino-1-(4-((6-amino-9H-purin-9-yl)methyl)-6-(3,4-difluorophenyl)pyridin-3-yl)piperidin-3-yl)-N,N-dimethylpropanamide]	–
10 to 1000	1540	–	–	Nc1ncnc2c1ncn2Cc1cc(-c2ccc(F)c(F)c2)ncc1N1CCCC(N)(c2cncc(Cl)n2)C1 (stereo not shown) [Example 254, 9-((5-(3-amino-3-(6-chloropyrazin-2-yl)piperidin-1-yl)-2-(3,4-difluorophenyl)pyridin-4-yl)methyl)-9H-purin-6-amine]	–

Further lines, the compound ahead of its results:

SMILES	IC50 (NSD2 [1-1365]) [nM]	IC50 ([2]; KMS11-Par line, 72 hours) [nM]	IC50 [2, 3] [nM]	IC50 (NSD2 [1-1365]; [4]) [nM]	also measured
Nc1ncnc2c1ncn2Cc1cc(-c2ccc(F)c(F)c2)ncc1N1CCC[C@](N)(c2ccc(OC(F)F)cn2)C1 [Example 209, (R)-9-((5-(3-amino-3-(5-(difluoromethoxy)pyridin-2-yl)piperidin-1-yl)-2-(3,4-difluorophenyl)pyridin-4-yl)methyl)-9H-purin-6-amine]	1 to 10	–	–	–	IC50 ([1]; CGTH-W-1 line, ELISA, 72 hours): 324 nM
Nc1ncnc2c1ncn2Cc1cc(-c2ccc(F)c(F)c2)ncc1N1CCCC(N)(c2ccncn2)C1 (stereo not shown) [Example 255, 9-((5-(3-amino-3-(pyrimidin-4-yl)piperidin-1-yl)-2-(3,4-difluorophenyl)pyridin-4-yl)methyl)-9H-purin-6-amine]	10 to 1000	–	–	–	IC50 ([1]; CGTH-W-1, 72 h): 232 nM
NC(=O)c1cccc(C2(N)CCCN(c3cnc(-c4ccc(F)c(F)c4)cc3Cn3cnc4c(N)ncnc43)C2)n1 (stereo not shown) [Example 195, 6-(3-amino-1-(4-((6-amino-9H-purin-9-yl)methyl)-6-(3,4-difluorophenyl)pyridin-3-yl)piperidin-3-yl)picolinamide]	10 to 1000	–	–	–	IC50 ([1]; CGTH-W-1, 72 h): 4920 nM
Nc1nccc2c1ncn2Cc1cc(-c2ccc(F)cc2)ncc1N1CCCC(N)(c2ccccn2)C1 (stereo not shown) [Example 266, 1-((5-(3-amino-3-(pyridin-2-yl)piperidin-1-yl)-2-(4-fluorophenyl)pyridin-4-yl)methyl)-1H-imidazo[4,5-c]pyridin-4-amine]	1 to 10	436	–	–	–
COCC1CC(N)CN(c2cnc(-c3ccc(F)c(F)c3)cc2Cn2cnc3c(N)ncnc32)C1 (stereo not shown) [Example 308, 9-((5-(3-amino-5-(methoxymethyl)piperidin-1-yl)-2-(3,4-difluorophenyl)pyridin-4-yl)methyl)-9H-purin-6-amine]	10 to 1000	27500	–	–	–
Cc1cccc([C@@]2(N)CCCN(c3cnc(-c4ccc(F)cc4)cc3Cn3cnc4c(N)nccc43)C2)n1 [Example 261, (R)-1-((5-(3-amino-3-(6-methylpyridin-2-yl)piperidin-1-yl)-2-(4-fluorophenyl)pyridin-4-yl)methyl)-1H-imidazo[4,5-c]pyridin-4-amine]	1 to 10	235	–	–	–
COc1ccc(-c2cc(Cn3cnc4c(N)nccc43)c(N3CCC[C@](N)(Cc4nccs4)C3)cn2)cc1F [Example 57, (S)-1-((5-(3-amino-3-(thiazol-2-ylmethyl)piperidin-1-yl)-2-(3-fluoro-4-methoxyphenyl)pyridin-4-yl)methyl)-1H-imidazo[4,5-c]pyridin-4-amine]	–	–	610	1 to 10	–
CCc1cccc([C@@]2(N)CCCN(c3cnc(C4CC4)cc3Cn3cnc4c(N)nccc43)C2)n1 [Example 252, (R)-1-((5-(3-amino-3-(6-ethylpyridin-2-yl)piperidin-1-yl)-2-cyclopropylpyridin-4-yl)methyl)-1H-imidazo[4,5-c]pyridin-4-amine]	10 to 1000	7250	–	–	–
Nc1nccc2c1ncn2Cc1cc(-c2ccc(F)c(F)c2)ncc1N1CCC[C@](N)(Cc2nccs2)C1 [Example 48, (S)-1-((5-(3-amino-3-(thiazol-2-ylmethyl)piperidin-1-yl)-2-(3,4-difluorophenyl)pyridin-4-yl)methyl)-1H-imidazo[4,5-c]pyridin-4-amine]	–	–	464	1 to 10	–
Cc1cccc(C2(N)CCCN(c3cnc(C4CC4)cc3Cn3cnc4c(N)nccc43)C2)n1 (stereo not shown) [Example 263, 1-((5-(3-amino-3-(6-methylpyridin-2-yl)piperidin-1-yl)-2-cyclopropylpyridin-4-yl)methyl)-1H-imidazo[4,5-c]pyridin-4-amine]	10 to 1000	4170	–	–	–
Nc1nccc2c1ncn2Cc1cc(C2CC2)ncc1N1CCC[C@](N)(c2cccc(C(F)F)n2)C1 [Example 264, (R)-1-((5-(3-amino-3-(6-(difluoromethyl)pyridin-2-yl)piperidin-1-yl)-2-cyclopropylpyridin-4-yl)methyl)-1H-imidazo[4,5-c]pyridin-4-amine]	10 to 1000	9630	–	–	–
Nc1nccc2c1ncn2Cc1cc(C2CCC2)ncc1N1CCCC(N)(c2cccc(Cl)n2)C1 (stereo not shown) [Example 267, 1-((5-(3-amino-3-(6-chloropyridin-2-yl)piperidin-1-yl)-2-cyclobutylpyridin-4-yl)methyl)-1H-imidazo[4,5-c]pyridin-4-amine]	10 to 1000	1910	–	–	–
